Experimental data published in patent US20170007554A1, “MEDICINE FOR PREVENTING ISCHEMIC DISEASES” (JX NIPPON OIL & ENERGY CORPORATION, priority 2014, published 2017).

Test system: RGC-5 cells
Assay: Cytoprotective action under OGD stress (dead cell rate, nuclear staining)
Assay type: cell-based
Conditions: no OGD stress
Method: The RGC-5 cell line is a cell line from rat retinal ganglion cells and used for in vitro tests for cell damage evaluation. The RGC-5 cell line can be cultured in accordance with the method disclosed in NAKAJIMA Y. et al., Zeaxanthin, a Retinal Carotenoid, Protects Retinal Cells against Oxidative Stress, Current Eye Research, 2009, Vol. 34, pp. 311-318.
Here, the expression OGD stress refers to a state in which the supply of oxygen and glucose is restricted.
RGC-5 cells were added at a concentration of 1×10^3 cells/well to a DMEM medium containing glucose […] that was concentrated at 4.5 times the general concentration and fetal bovine serum (FBS: 10%) of Oseanian origin that was concentrated at 10 times the general concentration, followed by culture for 24 hours. […]
Then, the mixture was washed twice with FBS-free base medium, followed by culture in DMEM medium containing high-concentration glucose […] and general-concentration FBS (1%) for 18 hours. The dead cell rate and the state of reactive oxygen species (ROS) generation were determined via nuclear staining. […] Meanwhile, the state of reactive oxygen species (ROS) generation was determined in accordance with the method disclosed in NAKAJIMA Y. et al., Zeaxanthin, a Retinal Carotenoid, Protects Retinal Cells against Oxidative Stress, Current Eye Research, 2009, Vol. 34, pp. 311-318. […]

SMILES: CC1=NN(c2ccccc2)C(=O)C1 [Edaravone]
- cell death in the absence of OGD stress: did not cause cell death
